The values below come from publication PMC10815131, “Novel Pitolisant-Derived Sulfonyl Compounds for Alzheimer Disease” (International Journal of Molecular Sciences, 2024).

In one series the target is T1, AChE (Rattus norvegicus, UniProt P37136).
T1 sequence (P37136 32-614): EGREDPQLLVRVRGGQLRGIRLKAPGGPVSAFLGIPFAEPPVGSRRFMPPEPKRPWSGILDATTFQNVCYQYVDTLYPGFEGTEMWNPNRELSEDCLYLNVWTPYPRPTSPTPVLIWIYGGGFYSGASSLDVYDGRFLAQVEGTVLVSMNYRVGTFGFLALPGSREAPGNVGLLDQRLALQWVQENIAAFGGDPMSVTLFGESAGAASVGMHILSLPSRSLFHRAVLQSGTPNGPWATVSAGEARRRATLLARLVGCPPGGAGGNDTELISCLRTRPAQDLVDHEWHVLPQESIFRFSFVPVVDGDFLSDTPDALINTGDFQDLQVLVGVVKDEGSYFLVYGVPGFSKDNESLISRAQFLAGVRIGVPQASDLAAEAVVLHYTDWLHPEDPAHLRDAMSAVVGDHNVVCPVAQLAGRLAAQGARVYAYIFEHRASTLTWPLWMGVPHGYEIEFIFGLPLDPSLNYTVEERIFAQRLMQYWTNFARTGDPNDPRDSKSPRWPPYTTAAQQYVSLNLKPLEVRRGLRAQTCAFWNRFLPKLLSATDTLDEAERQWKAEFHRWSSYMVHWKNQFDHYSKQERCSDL
The experiment in a line: biochemical. As to conditions: for inhibition at 1 µM: tested at 1 μM, rat hippocampal homogenate, read-out: AChE Inhibition (%) ± SEM. The method, then:
Male Wistar rats weighing 230–250 g were used. AChE activity was assessed using a colorimetric reported method with minor modifications. Hippocampal tissue was homogenized in 39 volumes of 75 mM sodium phosphate buffer (pH 7.4). A mixture of 2 mL containing the compounds assessed, acetylthiocholine iodide, and 50 μL tissue homogenate was incubated for 8 min. […] The extent of color production was measured spectrophometrically at 420 nm using Ultospec 3000 (Pharmacia Biotech, Piscataway, NJ, USA). All samples were assayed in triplicate. Results were expressed as percentages of control values.
Different concentrations of the compounds were tested for their ability to inhibit AChE activity.

The conditions of series [1]: for Pe: pig, PAMPA.
A short description of a further series: in vitro. To be noted: PAMPA.
Series [2] has as its system K+-evoked [3H]ACh efflux in rat hippocampal slices. In words: In vitro ACh release, K+-evoked [3H]ACh efflux. It counts as cell-based.
Description: Male Wistar rats weighing 230–250 g were used. K^+-evoked [^3H]ACh efflux was measured as previously described [39]. Briefly, the hippocampus was removed and dissected, cut sagittally into 500 µm slices using a McIlwain tissue chopper (The Mickle Laboratory Engineering Co. Ltd., Dorking, UK). […] Fractions were collected at 3-min intervals for a total of 60 min. At 12 min (S1) and 45 min (S2) after equilibration, the slices were depolarized by changing the superfusion fluid during 6 min to a solution containing 20 mM KCl. Drugs were added 15 min before S2. Tritium content was assayed by liquid scintillation spectroscopy. S1 and S2 were calculated as K+-stimulated tritium increases over basal efflux. Results were expressed as the S2/S1 ratio.

Like-named read-outs stand apart in the source and are kept apart here. Some results are limits rather than exact numbers.

For `NS(=O)(=O)c1ccc(OCCCN2CCOCC2)cc1` [Compound 3], the inhibition at 1 µM at AChE was less than 5%.

Consider `O=C(Nc1cccc2ccccc12)NS(=O)(=O)c1ccc(OCCCN2CCCC2)cc1` [Compound 5], for which, on AChE, the inhibition at 1 µM came out at 25.2 ± 7.7%.

As for `CN(C)c1ccc(NC(=O)NS(=O)(=O)c2ccc(OCCCN3CCCC3)cc2)cc1` [Compound 6], the inhibition at 1 µM on AChE came to 29.9 ± 3.63%. Besides, in series [1], the “PAMPA-BBB Classification” value is listed as “CNS − (key: CNS +/−: BBB permeation uncertain: Pe (10^−6 cm/s) from 4.0 to 2.0; CNS −: low BBB permeation predicted: Pe (10^−6 cm/s < 2.0)” and the Pe is 0.32. Besides, the Papp in “in vitro” was found to be 0.32 ± 0.01 ×10⁻⁶ cm/s.

`O=C(NC(c1ccccc1)c1ccccc1)NS(=O)(=O)c1ccc(OCCCN2CCCC2)cc1` [Compound 7]: on AChE (0.01–10 µM, in vitro), the “AChE activity inhibition (in words)” value is “significantly inhibit AChE activity in a concentration-dependent manner”. In addition, at AChE (estimated from non-linear fitted dose-response curves, 0.01–10 µM), the IC50 is more than 10 µM. The inhibition at 1 µM on AChE was more than 37%. Further, in series [2], the “K+-evoked [3H]ACh efflux” value is “able to increase ACh release in vitro”. For the same compound, in series [1], the “PAMPA-BBB Classification” value was “CNS − (key: CNS +/−: BBB permeation uncertain: Pe (10^−6 cm/s) from 4.0 to 2.0; CNS −: low BBB permeation predicted: Pe (10^−6 cm/s < 2.0)”. Moreover, the Pe in series [1] (20 h, 500 µg/mL) came out at 0.47. The compound also had a Papp at 20 h, 500 µg/mL in “in vitro” of 0.47 ± 0.06 ×10⁻⁶ cm/s.
